In the Kinase Knowledgebase extract (Sharma et al. 2016):
pKi: −log10 of the molar value.

The compounds below were run against ROCK2 (UniProt O75116) (assay: Inhibition of ROCK2 Kinase Activity).
ROCK2, sequence (O75116 whole entry, looked up): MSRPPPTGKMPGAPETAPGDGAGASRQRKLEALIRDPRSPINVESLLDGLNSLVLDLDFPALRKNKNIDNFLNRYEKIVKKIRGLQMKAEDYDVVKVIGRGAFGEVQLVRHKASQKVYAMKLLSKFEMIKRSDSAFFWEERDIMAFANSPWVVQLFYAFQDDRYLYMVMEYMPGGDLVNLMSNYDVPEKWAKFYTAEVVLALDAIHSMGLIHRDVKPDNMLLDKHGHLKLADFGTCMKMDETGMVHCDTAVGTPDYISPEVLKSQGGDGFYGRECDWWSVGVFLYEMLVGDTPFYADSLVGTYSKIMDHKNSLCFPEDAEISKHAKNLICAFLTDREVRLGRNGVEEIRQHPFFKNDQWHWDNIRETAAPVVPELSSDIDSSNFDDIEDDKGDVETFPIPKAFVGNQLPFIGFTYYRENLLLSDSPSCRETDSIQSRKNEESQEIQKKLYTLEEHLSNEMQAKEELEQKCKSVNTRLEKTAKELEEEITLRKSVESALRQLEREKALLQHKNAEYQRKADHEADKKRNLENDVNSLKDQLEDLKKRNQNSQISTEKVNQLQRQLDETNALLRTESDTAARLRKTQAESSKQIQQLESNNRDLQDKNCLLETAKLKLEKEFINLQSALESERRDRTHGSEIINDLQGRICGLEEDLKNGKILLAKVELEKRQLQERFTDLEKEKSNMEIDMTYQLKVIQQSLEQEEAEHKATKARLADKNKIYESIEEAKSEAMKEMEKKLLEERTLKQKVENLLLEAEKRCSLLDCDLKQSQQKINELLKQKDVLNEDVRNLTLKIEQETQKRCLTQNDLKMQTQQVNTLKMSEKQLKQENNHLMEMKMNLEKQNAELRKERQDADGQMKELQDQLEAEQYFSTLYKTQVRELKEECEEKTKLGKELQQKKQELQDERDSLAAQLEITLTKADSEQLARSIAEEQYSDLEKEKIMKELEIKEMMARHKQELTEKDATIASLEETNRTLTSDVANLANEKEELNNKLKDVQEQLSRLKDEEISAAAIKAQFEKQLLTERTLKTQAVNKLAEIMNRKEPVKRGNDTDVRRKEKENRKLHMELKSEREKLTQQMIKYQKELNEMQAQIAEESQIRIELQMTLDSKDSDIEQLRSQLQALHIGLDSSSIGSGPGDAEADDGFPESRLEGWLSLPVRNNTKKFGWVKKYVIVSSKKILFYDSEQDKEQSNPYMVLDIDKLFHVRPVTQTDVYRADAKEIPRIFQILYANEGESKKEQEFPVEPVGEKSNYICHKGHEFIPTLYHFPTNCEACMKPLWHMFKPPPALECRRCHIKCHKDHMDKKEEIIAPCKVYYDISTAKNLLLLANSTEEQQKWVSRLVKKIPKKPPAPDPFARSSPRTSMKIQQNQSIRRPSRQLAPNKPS

| pKi | SMILES |
| --- | --- |
| 7.89 | CCCCOc1c(-c2ccc(C(C)(C)N)cc2)ccc2[nH]ncc12 |
| 7.64 | C=CCOc1c(-c2ccc(C(C)(C)N)cc2)ccc2[nH]ncc12 |
| 7.85 | CC(C)(N)c1ccc(-c2ccc3[nH]ncc3c2N2CCCCC2)cc1 |
| 7.96 | CC(C)(N)c1ccc(-c2ccc3[nH]ncc3c2-c2cc[nH]n2)cc1 |
| 7.33 | CC(C)(N)c1ccc(-c2ccc3[nH]ncc3c2CCO)cc1 |
| 8.44 | CC(C)(N)c1ccc(-c2ccc3[nH]ncc3c2OC(F)F)cc1 |
| 8.19 | CC(C)(N)c1ccc(-c2ccc3[nH]ncc3c2-c2ccno2)cc1 |
| 6.21 | CCN(CC)c1c(-c2ccc(C(C)(C)N)cc2)ccc2[nH]ncc12 |
| 7.85 | CCCOc1c(-c2ccc(C(C)(C)N)cc2)ccc2[nH]ncc12 |
| 7.54 | CC(C)(N)c1ccc(-c2ccc3[nH]ncc3c2O)cc1 |
| 7.92 | CC(C)(N)c1ccc(-c2ccc3[nH]ncc3c2-n2cccc2)cc1 |
| 7.82 | CNc1c(-c2ccc(C(C)(C)N)cc2)ccc2[nH]ncc12 |
| 7.46 | CC(C)(N)c1ccc(-c2ccc3[nH]ncc3c2C#N)cc1 |
| 7.80 | CN(C)c1c(-c2ccc(C(C)(C)N)cc2)ccc2[nH]ncc12 |
| 7.51 | CC(C)(N)c1ccc(-c2ccc3[nH]ncc3c2OCC(F)(F)F)cc1 |
| 6.53 | CC(O)c1c(-c2ccc(C(C)(C)N)cc2)ccc2[nH]ncc12 (stereo not drawn) |
| 7.77 | CCOc1c(-c2ccc(C(C)(C)N)cc2)ccc2[nH]ncc12 |
| 7.48 | CC(C)Oc1c(-c2ccc(C(C)(C)N)cc2)ccc2[nH]ncc12 |
| 7.85 | CC(C)(N)c1ccc(-c2ccc3[nH]ncc3c2N2CCCC2)cc1 |
| 6.86 | CC(C)(N)c1ccc(-c2ccc3[nH]ncc3c2CO)cc1 |
| 7.55 | CC(C)(N)c1ccc(-c2ccc3[nH]ncc3c2[N+](=O)[O-])cc1 |
| 7.59 | CC(C)(N)c1ccc(-c2ccc3[nH]ncc3c2OCCF)cc1 |
| 8.59 | CC(C)(N)c1ccc(-c2ccc3[nH]ncc3c2-c2cnco2)cc1 |
| 7.89 | COc1c(-c2ccc(C(C)(C)N)cc2)ccc2[nH]ncc12 |
| 7.36 | CC(C)(N)c1ccc(-c2ccc3[nH]ncc3c2N)cc1 |
| 8.36 | CC(C)(N)c1ccc(-c2ccc3[nH]ncc3c2-c2cn[nH]c2)cc1 |
| 6.68 | CC(C)(N)c1ccc(-c2ccc3[nH]ncc3c2N2CCOCC2)cc1 |
| 6.90 | CC(C)(N)c1ccc(-c2ccc3[nH]ncc3c2-c2cccnc2)cc1 |

Continued, compound first:

| SMILES | pKi |
| --- | --- |
| CCC(N)(CC)c1ccc(-c2ccc3[nH]ncc3c2N(C)C)cc1 | 7.64 |
| CCC(N)(CC)c1ccc(-c2ccc3[nH]ncc3c2OC(F)F)cc1 | 7.89 |
| CC(C)(N)c1ccc(-c2ccc3[nH]ncc3c2[N+](=O)[O-])nc1 | 6.70 |
| CC(C)(N)c1ccc(-c2ccc3[nH]nc(C#N)c3c2)cc1 | 6.99 |
| CC(C)(N)c1ccc(-c2ccc3[nH]ncc3c2)cc1 | 7.72 |
| CC(C)(N)c1ccc(-c2ccc3[nH]ncc3c2OC(F)F)nc1 | 8.16 |
| CC(C)(N)c1ccc(-c2ccc3[nH]ncc3c2-c2ccncc2)cc1 | 7.35 |
| CC(C)(N)c1ccc(-c2ccc3[nH]ncc3c2NCc2ccccc2)cc1 | 6.59 |
| CCOc1c(-c2ccc(C(N)(CC)CC)cn2)ccc2[nH]ncc12 | 7.46 |
| CN(C)c1c(-c2ccc(C3(N)CCCC3)cc2)ccc2[nH]ncc12 | 7.85 |
| CC(C)(N)c1ccc(-c2ccc3[nH]nc(C=NO)c3c2)cc1 | 8.12 |
| CC(C)(N)c1ccc(-c2ccc3[nH]ncc3c2O)nc1 | 7.26 |
| NCc1ccc(-c2ccc3[nH]ncc3c2[N+](=O)[O-])cc1 | 7.26 |
| CCC(N)(CC)c1ccc(-c2ccc3[nH]ncc3c2OC2CC2)nc1 | 7.47 |
| COc1c(-c2ccc(C(C)(C)N)cn2)ccc2[nH]ncc12 | 7.57 |
| CC(C)(N)c1ccc(-c2ccc3[nH]ncc3c2OCC2CC2)nc1 | 6.84 |
| CCc1c(-c2ccc(C(C)(C)N)cn2)ccc2[nH]ncc12 | 7.82 |
| CCOc1c(-c2ccc(C(C)(C)N)cn2)ccc2[nH]ncc12 | 7.35 |
| CCCOc1c(-c2ccc(C(C)(C)N)cn2)ccc2[nH]ncc12 | 7.41 |
| CC(C)(N)c1ccc(-c2ccc3[nH]nc(N)c3c2)cc1 | 6.84 |

| SMILES | pKi |
| --- | --- |
| C=C(C)c1n[nH]c2ccc(-c3ccc(C(C)(C)N)cc3)cc12 | 7.25 |
| CC(C)(N)c1ccc(-c2ccc3[nH]nc(CO)c3c2)cc1 | 6.85 |
| Nc1c(-c2ccc(C3(N)CCCC3)cc2)ccc2[nH]ncc12 | 7.59 |
| CC(C)(N)c1ccc(-c2ccc3[nH]ncc3c2)nc1 | 7.70 |
| CCC(N)(CC)c1ccc(-c2ccc3[nH]ncc3c2N)cc1 | 7.42 |
| CC(C)(N)c1ccc(-c2ccc3[nH]ncc3c2CCO)nc1 | 6.63 |
| CC(C)(N)c1cnc(-c2ccc3[nH]ncc3c2)c(Cl)c1 | 7.07 |
| NCc1ccc(-c2ccc3[nH]ncc3c2N)cc1 | 7.21 |
| CC(C)Oc1c(-c2ccc(C(C)(C)N)cn2)ccc2[nH]ncc12 | 7.08 |
| COC(=O)c1n[nH]c2ccc(-c3ccc(C(C)(C)N)cc3)cc12 | 7.01 |
| CN(C)c1c(-c2ccc(CN)cc2)ccc2[nH]ncc12 | 7.54 |
| CC(C)(N)c1ccc(-c2ccc3[nH]ncc3c2-c2cn[nH]c2)nc1 | 7.25 |
| CC(N)c1ccc(-c2ccc3[nH]ncc3c2N(C)C)cc1 (stereo not drawn) | 7.57 |
| CC(C)(N)c1ccc(-c2ccc3[nH]ncc3c2C2CC2)nc1 | 8.57 |
| C=Cc1c(-c2ccc(C(C)(C)N)cn2)ccc2[nH]ncc12 | 7.77 |
| CC(C)(N)c1ccc(-c2ccc3[nH]ncc3c2-c2ccccn2)cc1 | 6.62 |
| COc1c(-c2ccc(C3(N)CCCC3)cn2)ccc2[nH]ncc12 | 7.57 |
| CCC(N)(CC)c1ccc(-c2ccc3[nH]ncc3c2OC)nc1 | 7.42 |
| CC(C)(N)c1ccc(-c2ccc3[nH]nc(C(N)=O)c3c2)cc1 | 6.87 |
| CC(C)(N)c1ccc(-c2ccc3[nH]ncc3c2OC2CC2)nc1 | 7.55 |
